≈ marks a conversion by molar mass, not a printed value. Like-named read-outs stand apart in the source and are kept apart here. Marks after values point to notes of the source that are not given here. Where only a bound is given, the exact number is not on record here.

One series relates to intracellular CTP pools. Format: cell-based.
In the next series the test system is TrD VEEV. Also on record: species or system ICR mice. Particulars: mouse, in vivo.
Series [1] deals with TC-83 VEEV. Put plainly: microbe, parasite or virus in culture. Format: cell-based, Venezuelan equine encephalitis virus.
For series [2], the system named is TC-83 VEEV. Also on record: species or system C3H/HeN mice. The conditions noted are these: mouse, in vivo.
Series [3] concerns TC-83 VEEV. On the set-up: species or system C3H/HeN mice. The conditions noted are these: mouse, in vivo. This is another data set of the same source.
Series [4] has as its system TC-83 strain of VEEV. Type of series: cell-based, Venezuelan equine encephalitis virus.
Series [5] relates to TC-83 strain of VEEV. Format: cell-based, Venezuelan equine encephalitis virus. This is another data set of the same source.
For series [6], the system named is TC-83 strain of VEEV. Format: cell-based, Venezuelan equine encephalitis virus. This is another data set of the same source.
Series [7] deals with Vero cells.
Series [8] has as its system Vero cells. The source holds these as a separate data set.
Series [9] deals with TC-83 VEEV. Put plainly: microbe, parasite or virus in culture. Type of series: cell-based. Particulars: Venezuelan equine encephalitis virus, read-out: EC50 (neutral red uptake).
The conditions of series [10]: in vivo, iv; cited from earlier work.

Take `Nc1ccn([C@@H]2C[C@H](CO)[C@@H](O)[C@H]2O)c(=O)n1` [(-)-carbodine]: the “Reduction in intracellular CTP” value with intracellular CTP pools is 65%. The Survival result with TrD VEEV is on record as “all animals died”. For the same molecule, in the series with TrD VEEV (ip), the “Mean time to death vs placebo” value is recorded as “slight, but significant, extension”. Besides, in the series on TC-83 VEEV [1], the “Cytidine concentration at which activity was completely abolished” value lay within 10 to 32 µg/mL. Moreover, the “Reduction of brain virus titer vs placebo” value in the series with TC-83 VEEV [2] worked out at 10 fold. For the same molecule, the Mortality rate in the series on TC-83 VEEV [3] came out at 50%. Besides, the “EC50 (NR)” value in the series on TC-83 strain of VEEV [4] was determined as 0.2 ± 0.0 µg/mL (≈ 0.829 µM). In addition, the “EC50 (vis)” value with TC-83 strain of VEEV [5] is 0.3 ± 0.2 ^f μg/ml. The molecule also came in with an EC90 with TC-83 strain of VEEV [6] of 0.4 ± 0.2 µg/mL (≈ 1.66 µM). Moreover, in the series on Vero cells [7], the IC50 is above 100 µg/mL and the “IC50 (neutral red uptake)” value is above 100 µg/mL. For the same molecule, in the series on Vero cells [8], the “IC50 (visual inspection)” value was above 100 µg/mL.

Consider `Nc1ccn([C@@H]2O[C@H](CO)[C@@H](O)[C@H]2O)c(=O)n1` [Cytidine, cytidine, reference compound], for which the EC50 was above 100 µg/mL with TC-83 VEEV [1] (Venezuelan equine encephalitis virus, read-out: EC50 (visual inspection)) and above 100 µg/mL in the series on TC-83 VEEV [9].

Take `Nc1ccn([C@@H]2C=C(CO)[C@@H](O)[C@H]2O)c(=O)n1` [Cyclopentenyl cytosine]: the “Adverse effects in human patients with solid tumors” value in series [10] was “hypotension and death”.

On to `Nc1ccn([C@H]2C[C@@H](CO)[C@H](O)[C@@H]2O)c(=O)n1` (racemic) [(+/-)-carbodine, Carbocyclic cytidine], for which the “EC50 (NR)” value in the series with TC-83 strain of VEEV [4] came to 0.70 µg/mL (≈ 2.9 µM). For the same molecule, the “EC50 (vis)” value with TC-83 strain of VEEV [5] was determined as 0.68 µg/mL (≈ 2.82 µM). In the series on TC-83 strain of VEEV [6], this molecule gave an EC90 of 1.7 µg/mL (≈ 7.05 µM). The same molecule gave a half-maximal inhibitory concentration (IC50) with Vero cells [7] above 100 µg/mL.

Regarding `Nc1ccn([C@H]2C[C@@H](CO)[C@H](O)[C@@H]2O)c(=O)n1` [(+)-carbodine], in the series with intracellular CTP pools, the “Intracellular CTP reduction” value is on record as “not reduced”. In the series on TC-83 strain of VEEV [4], the “Activity against TC-83 vaccine strain of VEEV” value was “no activity” and the “EC50 (NR)” value is above 100 µg/mL. The “EC50 (vis)” value in the series on TC-83 strain of VEEV [5] is above 100 µg/mL. For the same molecule, the EC90 in the series with TC-83 strain of VEEV [6] is above 100 µg/mL. This molecule displayed an IC50 with Vero cells [7] above 100 µg/mL.

Take Interferon alfacon-1: the “EC50 (visual inspection)” value in the series on TC-83 VEEV [1] came out at 0.06 µg/mL. Further, the “EC50 (NR)” value in the series with TC-83 strain of VEEV [4] is 0.05 µg/mL. Besides, the “EC50 (vis)” value in the series with TC-83 strain of VEEV [5] turned out to be 0.06 µg/mL. The same molecule gave a 90% effect concentration (EC90) in the series with TC-83 strain of VEEV [6] of 0.06 µg/mL. In addition, in the series on Vero cells [7], the half-maximal inhibitory concentration (IC50) was above 10 µg/mL and the “IC50 (neutral red uptake)” value is above 10 µg/mL. Also, in the series with Vero cells [8], the “IC50 (visual inspection)” value is above 10 µg/mL.

As a reminder, the EC90 is the concentration needed for an effect of 90%. As usually defined, the IC50 is the concentration that inhibits the measured activity by half. A lower IC50 goes with greater potency in that assay. The EC50 is the concentration at which the effect is half-maximal.

The values above are taken from paper PMC2612642 (Antiviral research, 2008).
